Measured values published in ChEMBL document CHEMBL3507680, “University of Dundee, Gates Library screen for HepG2 cell viability”.

Test: Human HepG2 cell viability assay in 384 well format
Type: toxicity, cell-based
Parameters: dose 125 nL, time 70.5 hour; cytotoxicity at 70.5 h: concentration not given beside the values
Settings: HepG2 cells, read-out: Inhibition

SMILES	cytotoxicity at 70.5 h [%]
COc1cc(N2CCC3(CC2)OCC(=O)NC3C)ncn1 (stereo not drawn)	-4.57
Cn1cc(CN2CCC[C@]3(C[C@H](Oc4ccccn4)CO3)C2)cn1	-7.75
Cn1ccnc1CN1CCc2c(COCC3CC3)nn(C)c2C1	-6.3
COc1cccc(-c2ccc3nc(C4CCN(C(C)=O)CC4)nn3c2)c1	-4.61
CC(=O)N1CCC(c2nc3ccc(-c4cccc(F)c4)cn3n2)CC1	-9.34
Cc1nc(CN2CCC23CCN(C(=O)c2ccco2)CC3)cs1	-1.36
CCO[C@@H]1CO[C@@]2(CCCN(S(=O)(=O)c3ccccc3)C2)C1	-8.47
O=S(=O)(c1ccccc1)N1CCC[C@]2(C[C@H](OCC3CC3)CO2)C1	-9.34
CCOC1COC2(CCN(S(=O)(=O)c3cccc(C)c3)CC2)C1 (stereo not drawn)	-6.02
Cn1ccc(-c2cc(C(=O)N3CCOCC3)c3ccccn23)n1	3.83
COCCNC(=O)[C@H]1C[C@@H]2CCN(Cc3ccoc3)C[C@H]2O1	-15.5
CN(C)C(=O)CC1CC2(CCNCC2)c2cc(F)ccc21 (stereo not drawn)	-8.47
COCC(=O)N1CCO[C@H]2[C@H](OC)CC[C@@H]21	-16.2
Cn1cnc(-c2cc(C(=O)N3CCOCC3)c3ccccn23)c1	-31.4
O=C(C1=CCCC1)N1C[C@@H]2COC[C@]2(COc2cccnc2)C1	-5.78
Cc1ccc(C(=O)N2C[C@@H]3COC[C@]3(COc3cccnc3)C2)cn1	12.6
CC(=O)N1CCO[C@@H]2CN(C(=O)c3cc(C)oc3C)CC[C@@H]2C1	13
COc1ccc(CN2CCn3c(CNS(C)(=O)=O)nnc3C2)cc1	24.4
Cn1cc(CN2CC[C@H](O)[C@@H]2Cc2ccncc2)cn1	26
Cc1cc(C(=O)N2CC[C@@H]3CN(S(C)(=O)=O)CCO[C@@H]3C2)c(C)o1	-5.13
O=S(=O)(c1ccccc1)N1CCC2(CCCN2CC2CCCC2)C1 (stereo not drawn)	-5.67
Cn1ncc2c1C(COCC1CC1)CN(Cc1ccc(F)cc1)C2 (stereo not drawn)	25.3
CCS(=O)(=O)NC[C@]12COC[C@H]1CN(Cc1cc(C)on1)C2	-6.04
O=C(NCC1CC1)[C@H]1C[C@@H]2CCN(Cc3nccs3)C[C@@H]2O1	-2.02
O=C1CC(c2cccnc2)C2(CCN(C(=O)c3ccncc3)CC2)N1 (stereo not drawn)	-1.04
Cc1occc1C(=O)N1CCC2(CCC2NC(=O)c2ccn(C)c2)CC1 (stereo not drawn)	-2.29

SMILES	cytotoxicity at 70.5 h [%]
O=C1CC[C@@H]2[C@@H](CCN2C(=O)c2ccsc2)N1CC1CC1	-6.8
NC(=O)N1CCC2(CC1)CN(c1ccsc1)C(=O)CO2	17.7
COCCC(=O)N1CCC2(COCc3cnc(-c4ccccc4)nc32)C1 (stereo not drawn)	2.54
CCS(=O)(=O)N1C[C@H]2C[C@H](C(=O)N(C)C)[C@@H](C1)O2	-19.2
CN(C)[C@@H]1CCN(C(=O)c2ccsc2)[C@H]1Cc1cnn(C)c1	-14.4
COc1ncccc1CN1CCn2c(Cn3cncn3)cnc2C1	20.3
Cc1cc(C(=O)N2CCC(n3nc(C)cc3C)C2)c2ccc(F)cc2n1 (stereo not drawn)	-9.21
Cc1ccc(F)c(C(=O)N2C[C@@H](C(=O)O)[C@H](c3ccccc3)C2)c1Cl	1.54
COCC[C@]1(O)CCN(Cc2nc(C(C)C)cs2)C[C@H]1C	-6.41
COCCN1CC2(CCC1=O)CCN(Cc1nnc(C)o1)CC2	-5.52
Cc1ncsc1C(=O)NCc1cccnc1N(C)CCc1ccccn1	-5.9
O=C1[C@H]2CC[C@H](CN(c3ncnc4ccsc34)C2)N1CC1CC1	-11
Cc1nc(N(C)C)nc(-c2cccc(-c3ccn(CCCO)n3)c2)c1C	-7.13
CN1[C@H]2CC[C@@H]1CN(C(=O)CCc1csc(N)n1)CC2	-11.5
CC(C)C1CN(Cc2nccn2C)CCC(=O)N1CC1CC1 (stereo not drawn)	-2.87
CCCn1c(C)c(CC(=O)N(C)CCO)c2c1CC(C)(C)CC2=O	26.2
Cc1ccc(S(=O)(=O)NCC2CNCCOC2)cc1Cl (stereo not drawn)	-2.6
Cc1ccc2nc(C)c(C)c(C(=O)N3CCC4(CCO4)CC3)c2c1	-5.61
CCN(Cc1cnn(C)c1)C[C@H]1CC[C@@H](Cc2ccc(C#N)cc2)O1	-17.4
C=C(C)CNC(=O)C1CCC(=O)N(C2CCCC2)C1 (stereo not drawn)	-2.49
Cc1nc(CN2CCC3(CCCO3)CC2)c2ccccn12	14.9
CN(Cc1nc(COc2ccccc2)no1)CC1Cc2ccccc2O1 (stereo not drawn)	-3.44
COC(C)(C)C(=O)N[C@H]1CN(c2ncccc2C(N)=O)C[C@@H]1C(C)C	0.335
Cc1nc(C(C)NCc2cc(O)c3cccc(F)c3n2)cs1 (stereo not drawn)	-6.76
CCc1nnc(NC(=O)CCN2CC=C(c3cnn(C)c3)CC2)s1	-7.5
Cc1nn2c(NCC(N)=O)cc(-c3ccccc3)nc2c1C	15.2

SMILES	cytotoxicity at 70.5 h [%]
CCc1cnc(NCc2nc(COC)no2)nc1	-11.1
Cc1cc(C(=O)NC2CCCCNC2=O)c(=O)[nH]c1C (stereo not drawn)	-6.38
CCOCCC(=O)Nc1cc(C(N)=O)ccc1N1CCCC(C)C1 (stereo not drawn)	-2.01
CC(C)[C@@H]1CN(Cc2ccsc2)C[C@H]1NS(=O)(=O)N(C)C	1.27
CN(Cc1ccc2nsnc2c1)CC1(O)CCNC1 (stereo not drawn)	-5.93
Fc1ccc2c(c1)C1(CCNCC1)CC2NC1CC1 (stereo not drawn)	14.1
c1ccc(OC[C@@H]2CCC[C@@]23CNCCO3)nc1	10.8
c1cc(COC[C@@H]2CCC[C@@]23CNCCO3)ccn1	8.32
O=C(NCc1cncc2c1CCN(Cc1cccs1)C2)C1CC1	-13.8
CN1CCC(c2nc3ccc(-c4cccc(F)c4)cn3n2)CC1	-6.5
O=C(NCc1cccnc1)c1nc2c(s1)CCCN2C(=O)C1CC1	-3.72
O=C1NCCN(CC2CC2)C12CCN(Cc1ccccc1)CC2	13.9
COCC1CN(Cc2ccoc2)Cc2nn(C)cc21 (stereo not drawn)	-2.22
CCC1=N[C@@]2(CC[C@@H]3CN(Cc4ccc(Cl)cc4)C[C@@H]32)C(=O)N1	-3.73
COCC(=O)NCc1cc(=O)n2c(n1)CN(CC1CCOC1)CCC2 (stereo not drawn)	15.2
CN(C)CCO[C@@H]1CC[C@H]2[C@H]1OCCN2C(=O)COc1ccccc1	-16.3
O=C(Cc1ccccc1F)N1C[C@@H]2COC[C@]2(COc2cccnc2)C1	-11.5
CC1=N[C@@]2(CC[C@@H]3CNC[C@@H]32)C(=O)N1CC(C)C	31.4
Cc1ccc(CN2CC[C@H]3OCC[C@@H](C(=O)NC4CC4)[C@@H]3C2)o1	18.8
CNC(=O)C1Cn2ccnc2C2(CCN(Cc3cccc(C)n3)CC2)O1 (stereo not drawn)	0.339
Cc1nnc(N2CC[C@H]3C[C@H](C(=O)N4CCOCC4)O[C@H]3C2)s1	-2.02
O=C(Cc1ccc(F)cc1)N1CCn2cc(Cn3cccn3)nc2C1	-1.99
Cc1ccc(N2CC[C@H]3C[C@@H](C(=O)N4CCOCC4)O[C@H]3C2)nn1	-0.412
COCCN1CCC2(CC1)CN(C(=O)N(C)C)c1ccc(C)cc12	3.45
O=S(=O)(c1cccs1)N1CC[C@H](O)[C@@H]1Cc1ccncc1	-1.15
CN(C)C(=O)[C@@H]1C[C@@H]2CCN(Cc3nccs3)C[C@@H]2O1	-6.01

SMILES	cytotoxicity at 70.5 h [%]
Cc1noc([C@H]2C[C@H]3OCC[C@H]3N(Cc3ccc4c(c3)OCO4)C2)n1	-11.8
CN1CC(=O)N(c2cccc(F)c2)CC12CCN(S(C)(=O)=O)C2 (stereo not drawn)	-10.7
Fc1ccc(CN2CC[C@H]3O[C@@H](COCC4CCOCC4)CC[C@H]32)cc1	18.1
CN(C)CC(=O)N1CCC2(CC1)CN(c1ccsc1)C(=O)CO2	21
COCCN1C(=O)C[C@H]2[C@H]1CCN2Cc1ccc(OC)cc1	-7.39
CCC(=O)N1CC[C@H]2[C@H](C[C@@H](CN3CCCC3)N2c2nccs2)C1	-3.2
CC(=O)N1CC[C@H]2[C@H](C[C@@H](CN3CCCC3)N2c2nccs2)C1	-7.72
CS(=O)(=O)N1Cc2ccnn2CC(C(=O)NCc2cccnc2)C1 (stereo not drawn)	20.5
Cc1ccc(CC(=O)N2CC[C@@H]3CN(CCN(C)C)CCO[C@@H]3C2)cc1	-8.7
c1cc(CO[C@@H]2CC[C@H]3[C@H]2OCCN3CC2CCOCC2)ccn1	21.5
COc1ccc(CN2C[C@@H](OCc3ccccn3)[C@H]3COC[C@H]32)cc1	-23.2
c1cc(CO[C@@H]2CC[C@H]3[C@H]2OCCN3Cc2ccoc2)ccn1	-14.9
c1cncc(N2CCCC3(CN(Cc4cccs4)CCO3)C2)c1 (stereo not drawn)	9.99
O=C(NCc1ccccn1)[C@@H]1COC[C@H]2CN(C3CCOCC3)C[C@H]21	2.68
O=C(NCc1ccccn1)[C@@H]1CCO[C@@H]2CCN(Cc3ccoc3)C[C@H]21	-1.45
O=C(c1ccco1)N1C[C@@H]2OCCN(CCN3CCCC3)[C@@H]2C1	-11.2
c1cncc(N2CCOCC3(CCCN(Cc4cccs4)C3)C2)c1 (stereo not drawn)	0.445
Cc1cc(CN2C[C@@H]3COC[C@]3(CN(C)C)C2)no1	-6.11
Cc1ccc2c(c1)C1(CCNCC1)CN2C(=O)CN(C)C	4.93
CCN(C)c1ncnc2c1CCN(Cc1csc(C)n1)CC2	-12.4
N#Cc1cccc(CN2CC[C@@H]3[C@@H]2CC(=O)N3Cc2cccnc2)c1	-18.9
CN1CC[C@H]2[C@H](C[C@@H](CN3CCCC3)N2c2nccs2)C1	-3.73
COc1ccc(CN2CCn3cc(CN4CCN(C)CC4)nc3C2)cc1	-7.16
c1ccc(CN2CC[C@@H]3O[C@H](COCc4ccncc4)CC[C@@H]32)nc1	-13
c1ccc(CN2C[C@@H]3OCCN(c4ncccn4)[C@@H]3C2)nc1	-12.9
